# Test results reported in US20250360167A1 (Keryx Biopharmaceuticals, Inc., priority 2013, published 2025).
# Experiments:
# Assay type in all cases: in vivo, human
# [1] = Phase 2 trial (Example 2): treatment failures; conditions: two consecutive visits; 12-week treatment period
# Description: If a subject has a serum phosphorus ≥6.0 mg/dL for at least two visits in a row during the 12-week treatment period, the subject is considered a treatment failure, stops study drug and exits the study.
# The use of IV iron and erythropoietin stimulating agents (ESAs) is not permitted during the two-week washout and 12-week treatment periods. If a subject's hemoglobin level (Hgb) is <9.0 g/dL during the two-week washout, the subject is a screen failure. If a subject's Hgb is <9.0 g/dL for at least two visits in a row during the 12-week treatment period, the subject is considered a treatment failure, stops study drug and exits the study.
# Patients were discontinued from the study if they had hemoglobin measurements <9.0 g/dL on two consecutive visits or serum phosphorus measurements ≥6.0 mg/dL on two consecutive visits following randomization.
# [2] = system: intact fibroblast growth factor 23 (FGF23); assay: Phase 2 trial (Example 2): intact FGF-23; conditions: n = 63
# Description: Change in calcium x phosphorus product, serum calcium, estimated glomerular filtration rate (eGFR), urinary phosphorus, bicarbonate levels, serum iron, UIBC, TIBC, iPTH, and intact fibroblast growth factor 23 (FGF23) from baseline (Visit 4, Week 0) to the end of treatment (Visit 11, Week 12) are also assessed as secondary endpoints.
# The key secondary endpoints of the study were the mean changes in ferritin, hemoglobin and FGF-23 from baseline to the end of the 12-week treatment period versus placebo in the ITT group.
# [3] = system: serum phosphorus; assay: Phase 3 trial (Example 1), four-week placebo-controlled Efficacy Assessment Period: serum phosphorus; conditions: for Serum Phosphorus, Mean / Serum Phosphorus, Median: Efficacy Assessment Period; for Serum Phosphorus, Mean / Serum Phosphorus, Median / Serum Phosphorus, LS Mean / Serum Phosphorus, Treatment Differences, LS Mean (KRX-0502) − LS Mean (Placebo), (SE) / Serum Phosphorus, Change from Baseline, Mean / Serum Phosphorus, Change from Baseline, Median: Table 14; for Serum Phosphorus, Change from Baseline, Mean / Serum Phosphorus, Change from Baseline, Median: Week-52 baseline
# From the text: This trial was a three-period, multicenter, safety and efficacy clinical trial.
# Period 3 (Efficacy Assessment Period). Following the Safety Assessment Period, those patients randomized to treatment with ferric citrate entered a four-week, randomized, open-label, placebo-controlled Efficacy Assessment Period.
# Serum phosphorus and calcium were checked at Visit 5 (Week 1), and every two weeks during the first 12 weeks after Visit 4 (Randomization Visit), and monthly for the rest of the Safety Assessment Period. During the Efficacy Assessment Period, serum phosphorus and calcium were drawn weekly. These values guided study drug administration. While on study drug, the use of other phosphate binders was not permitted. […] The titration of calcium acetate and sevelamer carbonate throughout the 52-week Safety Assessment Period were according to the current package inserts for these agents and/or at the discretion of the site PI.
# Serum phosphorus and calcium were performed at Screening (Visit 0); weekly during the Washout Period after Visit 1 (Week −2); at Visit 4 (Randomization Visit); at Visits 5 (Week 1), 6 (Week 2), 7 (Week 4), 8 (Week 6), 9 (Week 8), 10 (Week 10), 11 (Week 12), 12 (Week 16), 13 (Week 20), 14 (Week 24), 15 (Week 28), 16 (Week 32), 17 (Week 36), 18 (Week 40), 19 (Week 44), 20 (Week 48), and 21 (Week 52) of the 52-week Safety Assessment Period; and at Visits 22 (Week 53), 23 (Week 54), 24 (Week 55) and 25 (Week 56) of the Efficacy Assessment Period.
# There were two unique and distinct baseline assessments. The baseline for the Safety Assessment Period was the Randomization Visit (Visit 4) and was defined as “Week-O-baseline.” The baseline for the Efficacy Assessment Period was the last visit of the Safety Assessment Period (Visit 21, Week 52) and was defined as “study-baseline.”
# The primary efficacy variable was analyzed via an ANCOVA model with treatment as the fixed effect and study-baseline as the covariate. Between-treatment differences were estimated and two-sided 95% confidence intervals for the differences were presented.
substance,measurement,setting,value
"iron (+3), x (1, 2, 3-propanetricarboxylic acid, 2-hydroxy-), y (H2O) [KRX-0502]","Treatment Failures (n), Hemoglobin <9.0 g/dL",[1],1
same,"Treatment Failures (n), Serum Phosphorus ≥6.0 mg/dL",[1],0
same,"Mean Intact FGF-23, Baseline",[2]; Baseline,319 pg/mL
same,"Mean Intact FGF-23, End of Treatment (Week 12)","[2]; Week 12, last observation carried forward",200 pg/mL
same,Mean Serum Phosphorus,"[3]; End of Treatment (Week 56), LOCF, Table A",4.9 mg/dL
same,"Serum Phosphorus, Mean",[3]; Week 52 Baseline,5.16
same,"Serum Phosphorus, Median",[3]; Week 52 Baseline,5.10
same,"Serum Phosphorus, LS Mean","[3]; Week 53, ANCOVA",4.92
same,"Serum Phosphorus, Mean",[3]; Week 53,4.90
same,"Serum Phosphorus, Median",[3]; Week 53,4.95
same,"Serum Phosphorus, Treatment Differences, LS Mean (KRX-0502) − LS Mean (Placebo), (SE)",[3]; Week 53,−1.73 (0.21)
same,"Serum Phosphorus, Change from Baseline, Mean",[3]; Week 53,−0.31
same,"Serum Phosphorus, Change from Baseline, Median",[3]; Week 53,−0.30
same,"Serum Phosphorus, LS Mean","[3]; Week 54, ANCOVA",4.80
same,"Serum Phosphorus, Mean",[3]; Week 54,4.78
same,"Serum Phosphorus, Median",[3]; Week 54,4.70
same,"Serum Phosphorus, Treatment Differences, LS Mean (KRX-0502) − LS Mean (Placebo), (SE)",[3]; Week 54,−2.08 (0.22)
same,"Serum Phosphorus, Change from Baseline, Mean",[3]; Week 54,−0.36
same,"Serum Phosphorus, Change from Baseline, Median",[3]; Week 54,−0.40
same,"Serum Phosphorus, LS Mean","[3]; Week 55, ANCOVA",4.76
same,"Serum Phosphorus, Mean",[3]; Week 55,4.75
same,"Serum Phosphorus, Median",[3]; Week 55,4.60
same,"Serum Phosphorus, Treatment Differences, LS Mean (KRX-0502) − LS Mean (Placebo), (SE)",[3]; Week 55,−2.18 (0.23)
same,"Serum Phosphorus, Change from Baseline, Mean",[3]; Week 55,−0.41
same,"Serum Phosphorus, Change from Baseline, Median",[3]; Week 55,−0.50
same,"Serum Phosphorus, LS Mean","[3]; Week 56, ANCOVA",4.94
same,"Mean Serum Phosphorus, Least Squares (LS) Mean Difference from Placebo","[3]; Week 56, ANCOVA, Table A",-2.3 mg/dL
same,"Serum Phosphorus, Mean",[3]; Week 56,4.92
same,"Serum Phosphorus, Median",[3]; Week 56,4.60
same,"Serum Phosphorus, Treatment Differences, LS Mean (KRX-0502) − LS Mean (Placebo), (SE)",[3]; Week 56,−2.28 (0.23)
same,"Serum Phosphorus, Change from Baseline, Mean",[3]; Week 56,−0.23
same,"Serum Phosphorus, Change from Baseline, Median",[3]; Week 56,−0.50
same,Mean Serum Phosphorus,"[3]; baseline Week 52, Table A",5.2 mg/dL
same,"Mean Serum Phosphorus, Change from Baseline at Week 56","[3]; baseline Week 52, Table A",-0.3 mg/dL
